Source: patent US20250205215A1, “NOVEL USE OF PITOLISANT FOR TREATING SEVERE FATIGUE” (BIOPROJET, priority 2022, published 2025)
“Also recorded” adds a separate entry of the source. Counter-ions that a name gives are not always drawn. Like-named read-outs stand apart in the source and are kept apart here.

Assays:
[1] = tested on: patients with multiple sclerosis; settings: cited from earlier work
[2] = tested on: patients with neurological conditions; settings: meta-analysis, variety of neurological conditions; cited from earlier work
patients with narcolepsy = settings: 20 to 40 mg once a day, cited from earlier work
healthy volunteers [3] = assay: Critical Flicker Fusion Test (CFFT) in healthy volunteers; format: in vivo, human; settings: for Fusion Frequency (Flicker Fusion Test), fatigue: end of the day, healthy volunteers
From the text: The flicker fusion frequency (F.F.F.) is defined as the frequency, in flickers per second, at which an interrupted light appears as a steady light. It has been established that the score made in such tests can be used as a measure of fatigue (Luczak A, et al. Ergonomics, 2005 Dec. 15; 48 (15):1770-92; Ma et al PLOS One, 2014 Feb. 5; 9 (2):e87121; Maeda et al Jpn J Radiol. 2011 August; 29 (7):483-7).
In human healthy volunteers, fatigue can be evaluated at the end of the day, when fatigue tends to increase, using a known psychometric test, the Flicker Fusion Test as reported by Luczak A, et al. Ergonomics, 2005 Dec. 15; 48 (15):1770-92; Ma et al PLOS One, 2014 Feb. 5; 9 (2):e87121; Maeda et al Jpn J Radiol. 2011 August; 29 (7):483-7.
In a group of 36 healthy volunteers, the change in Fusion Frequency was evaluated at several times along the day and after administration of either placebo or pitolisant monohydrochloride at increasing dosages (20, 40 or 60 mg).

[4] = tested on: patients with Obstructive Sleep Apnea (OSA); settings: 20 mg od, cited from earlier work
[5] = Blood levels of pitolisant and metabolites in healthy volunteers; format: in vivo, human; settings: 160, 200 or 240 mg, blood samples
Method: (§1) A group of 24 healthy volunteers received placebo or pitolisant monohydrochloride mg at doses of 160, 200 or 240 mg. This last dose corresponds to 6 times the maximum dosage recommended in narcolepsy.

[6] = tested on: human volunteers deprived of sleep; assay: Fusion Frequency in volunteers deprived of sleep during 24 h; format: in vivo; settings: 30 mg once a day
Method: Pitolisant hydrochloride was administered once a day at a dose of 30 mg in human volunteers deprived of sleep during 24 h. Fatigue evaluated in these volunteers by the Fusion Frequency was not modified by either placebo or pitolisant at this dose.

healthy volunteers [7] = assay: Wakefulness assessed by Spectral EEG in healthy volunteers; format: in vivo, human; settings: 40 mg
histamine H3 receptors = molecular target: T1, histamine H3 receptors (Homo sapiens, UniProt Q9Y5N1); settings: 40 mg, cited from earlier work
T1 construct: Brain Histamine H3 Receptors Occupancy; from tissue; host or cells: living human brain (in vivo PET); value cited from Rusjan et al., Br J Pharmacol 2020

healthy volunteers [8] = assay: Adverse effect study at high doses in healthy volunteers; format: in vivo, human
Method: as §1
Furthermore, the rare abnormalities were reported in all treatment groups.

[9] = 160, 200 or 240 mg, healthy volunteers

T1 sequence (Q9Y5N1 whole entry): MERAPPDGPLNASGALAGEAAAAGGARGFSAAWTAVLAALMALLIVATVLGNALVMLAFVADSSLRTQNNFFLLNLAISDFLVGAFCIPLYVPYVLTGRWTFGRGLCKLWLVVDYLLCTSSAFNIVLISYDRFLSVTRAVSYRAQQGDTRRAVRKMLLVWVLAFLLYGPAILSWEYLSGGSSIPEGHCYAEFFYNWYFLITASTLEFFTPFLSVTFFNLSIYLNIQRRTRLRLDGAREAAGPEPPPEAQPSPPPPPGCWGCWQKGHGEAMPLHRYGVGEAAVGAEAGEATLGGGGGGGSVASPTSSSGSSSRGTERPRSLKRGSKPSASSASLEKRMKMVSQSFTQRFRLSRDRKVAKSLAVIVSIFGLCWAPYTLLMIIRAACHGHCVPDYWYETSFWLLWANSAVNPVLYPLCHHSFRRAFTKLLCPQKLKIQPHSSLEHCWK

## NC12CC3CC(CC(C3)C1)C2 [Amantadine, amantadine]
[1]
  Adverse events versus placebo: more frequent adverse events
  Improving multiple sclerosis fatigue versus placebo: not superior to placebo

## COC(=O)C(c1ccccc1)C1CCCCN1 (stereo not shown) [methylphenidate]
[1]
  Adverse events versus placebo: more frequent adverse events
  Improving multiple sclerosis fatigue versus placebo: not superior to placebo

## NC(=O)C[S+]([O-])C(c1ccccc1)c1ccccc1 (stereo not shown) [modafinil]
[2]
  Effect on EDS: generally effective
  Effect on fatigue: without clear effect
[1]
  Adverse events versus placebo: more frequent adverse events
  Improving multiple sclerosis fatigue versus placebo: not superior to placebo

## Clc1ccc(CCCOCCCN2CCCCC2)cc1 [pitolisant monohydrochloride]
Patients with narcolepsy; listed as Pitolisant monohydrochloride
  EDS and cataplexy in patients with narcolepsy: shown to improve
Healthy volunteers [3]; 60 mg orally
  Fusion Frequency (Flicker Fusion Test), fatigue: reversed the alteration
Healthy volunteers [3]; 60 mg orally, listed as pitolisant hydrochloride
  Fusion Frequency (Flicker Fusion Test), fatigue: significantly improved
Healthy volunteers [3]; 30 to 40 mg treatment, conclusion over examples 1 and 2
  Flicker Fusion Test, fatigue (conclusion): not improved
Healthy volunteers [3]; lower doses (20, 40 mg)
  Fusion Frequency (Flicker Fusion Test), fatigue: failed. to provide a significant change
[4]; OSA, trial of Dauvilliers et al. 2020
  SF evaluated with the Pichot scale: statistically different from placebo
[4]; two trials
  EDS in patients with OSA: reduced
[5]
  Blood level of pitolisant and metabolites: dose proportionality
[6]; listed as Pitolisant hydrochloride
  Fatigue evaluated by the Fusion Frequency: not modified
Healthy volunteers [7]
  Wakefulness by Spectral EEG: improved significantly
Histamine H3 receptors; PET scan, healthy volunteers
  Occupancy of histamine H3 receptors (mean±SD): 84±7%
Histamine H3 receptors
  Occupancy of the brain histamine H3-receptors (in words): high occupancy
Healthy volunteers [8]; [9]
  Number and nature of adverse events versus placebo: did not differ

## Clc1ccc(CCCOCCCN2CCCCC2)cc1 [pitolisant, 3-(4-Chlorophenyl) propyl 3-piperidinopropyl ether]
Patients with narcolepsy
  EDS and cataplexy in patients with narcolepsy: significant effect
[6]
  Fatigue evaluated by the Fusion Frequency: not improved
Healthy volunteers [8]; 160 mg, 200 mg and 240 mg (doses up to 240 mg od)
  Safety and tolerability: without overt adverse effect; also recorded: safe and well tolerated
Healthy volunteers [8]; [9]
  Laboratory parameters, vital signs, physical examination and ECG parameters: No significant abnormalities
